Source: patent US12486290B2, “Isoindolinone and indazole compounds for the degradation of EGFR” (C4 THERAPEUTICS, INC., priority 2019, dated 2025)

Target: T1, EGFR T790M/L858R (NCI-H1975 cells) (Homo sapiens, UniProt P00533, L858R/T790M)
T1 construct: NCI-H1975 (harboring EGFR heterozygous T790M/L858R mutations); host or cells: NCI-H1975
Experiment: EGFR (L858R) degradation analysis, Total EGFR (L858R) HTRF, NCI-H1975 cells
Type: cell-based
Conditions: 6 hours
From the text: NCI-H1975 (harboring EGFR heterozygous T790M/L858R mutations) and NCI-H3255 (harboring EGFR heterozygous L858R mutation) were purchased from ATCC and NCI, respectively. NCI-H1975+CS (harboring EGFR heterozygous T/790M/L858R/C797S mutations) was generated using CRISPR technology to introduce the additional C797S mutation by Horizon Discovery. RPMI 1640 no-phenol red medium and fetal bovine serum (FBS) were purchased from Gibco (Grand Island, NY, USA). Cell culture flasks and 384-well microplates were acquired from VWR (Radnor, PA, USA). Total EGFR (L858R) HTRF assay kits were purchased from Cisbio (Bedford, MA, USA).
Degradation of EGFR protein containing L858R mutation was determined based on quantification of FRET signal using Total EGFR (L858R) HTRF assay kit. Test compounds were added to the 384-well plate from a top concentration of 10 μM with 11 points, half log titration in duplicates. NCI-H1975, NCI-H1975+CS or NCI-H3255 cells were added into 384-well plates at a cell density of 10000, 10000 or 1000 cells per well, respectively. The plates were kept at 37° C. with 5% CO2 for 6 hours. Cells treated in the absence of the test compound were the negative control. Positive control was set by wells containing all reagents but no cells. FRET signal was acquired on EnVision™ Multilabel Reader (PerkinElmer, Santa Clara, CA, USA).

T1 sequence (P00533 25-1210 T790M/L858R): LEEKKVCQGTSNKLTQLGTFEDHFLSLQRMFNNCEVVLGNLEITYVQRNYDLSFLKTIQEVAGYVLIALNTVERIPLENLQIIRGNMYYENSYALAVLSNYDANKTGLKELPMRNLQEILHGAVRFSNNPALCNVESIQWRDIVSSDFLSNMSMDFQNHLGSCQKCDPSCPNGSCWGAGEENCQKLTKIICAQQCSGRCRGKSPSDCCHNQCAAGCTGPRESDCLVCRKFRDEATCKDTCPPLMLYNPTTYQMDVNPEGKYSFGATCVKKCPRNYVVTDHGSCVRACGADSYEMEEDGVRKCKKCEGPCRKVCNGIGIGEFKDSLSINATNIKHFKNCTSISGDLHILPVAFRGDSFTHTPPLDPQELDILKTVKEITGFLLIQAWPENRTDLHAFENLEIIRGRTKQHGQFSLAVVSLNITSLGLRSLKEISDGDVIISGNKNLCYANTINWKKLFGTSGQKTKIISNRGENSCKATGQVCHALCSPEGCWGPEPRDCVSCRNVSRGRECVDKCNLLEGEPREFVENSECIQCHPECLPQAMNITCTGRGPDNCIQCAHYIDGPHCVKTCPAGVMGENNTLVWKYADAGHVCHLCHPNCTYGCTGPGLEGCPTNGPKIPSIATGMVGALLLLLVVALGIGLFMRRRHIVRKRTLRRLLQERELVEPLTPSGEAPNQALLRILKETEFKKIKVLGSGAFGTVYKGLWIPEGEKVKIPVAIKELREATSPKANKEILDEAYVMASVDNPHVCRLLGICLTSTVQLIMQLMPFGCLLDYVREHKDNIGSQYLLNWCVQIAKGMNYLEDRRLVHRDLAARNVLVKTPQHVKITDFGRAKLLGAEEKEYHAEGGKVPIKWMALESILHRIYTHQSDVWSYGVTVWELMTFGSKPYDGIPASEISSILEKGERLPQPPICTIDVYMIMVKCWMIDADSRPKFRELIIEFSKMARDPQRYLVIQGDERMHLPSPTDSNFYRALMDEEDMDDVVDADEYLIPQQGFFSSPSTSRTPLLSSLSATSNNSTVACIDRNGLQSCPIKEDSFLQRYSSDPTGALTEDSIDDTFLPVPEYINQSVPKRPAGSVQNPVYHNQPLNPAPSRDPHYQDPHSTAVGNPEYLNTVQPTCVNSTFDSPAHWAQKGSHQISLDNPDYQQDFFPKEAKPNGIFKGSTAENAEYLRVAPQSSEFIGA

SMILES | DC50 [nM]
O=C1CCC(Oc2ccc(N3CCN(CC(=O)N4CCC(NC(=O)c5ccc(C#Cc6cc(F)c7c(c6)C(=O)N(C(C(=O)Nc6nccs6)c6ncn8c6CCC8)C7)cn5)CC4)CC3)cc2)C(=O)N1 (racemic) [Compound 3, 5-[2-[7-Fluoro-3-oxo-2-[(1RS)-1-(6,7-dihydro-5H-pyrrolo[1,2-c]imidazol-1-yl)-2-oxo-2-(thiazol-2-ylamino)ethyl]isoindolin-5-yl]ethynyl]-N-[1-[2-[4-[4-[[(3RS)-2,6-dioxo-3-piperidyl]oxy]phenyl]piperazin-1-yl]acetyl]-4-piperidyl]pyridine-2-carboxamide] | 4
O=C1CCC(Nc2ccc(C3CCN(C(=O)CCCN4CCN(c5ccc(-c6cc(F)c7c(c6)C(=O)N(C(C(=O)Nc6nccs6)c6ncn8c6CCC8)C7)cc5)CC4)CC3)cc2)C(=O)N1 (racemic) [Compound 8, (2RS)-2-(6,7-Dihydro-5H-pyrrolo[1,2-c]imidazol-1-yl)-2-[4-fluoro-1-oxo-6-[4-[4-[4-oxo-4-[4-[4-[[(3RS)-2,6-dioxo-3-piperidyl]amino]phenyl]-1-piperidyl]butyl]piperazin-1-yl]phenyl]isoindolin-2-yl]-N-thiazol-2-yl-acetamide] | 17
O=C1CCC(Nc2ccc(C3CCC(CC(=O)N4CCN(c5ccc(-c6cc(F)c7c(c6)C(=O)N(C(C(=O)Nc6nccs6)c6ncn8c6CCC8)C7)cc5)CC4)CC3)cc2)C(=O)N1 (racemic) [Compound 9, (2RS)-2-(6,7-Dihydro-5H-pyrrolo[1,2-c]imidazol-1-yl)-2-[4-fluoro-1-oxo-6-[4-[4-[2-[4-[4-[[(3RS)-2,6-dioxo-3-piperidyl]amino]phenyl]cyclohexyl]acetyl]piperazin-1-yl]phenyl]isoindolin-2-yl]-N-thiazol-2-yl-acetamide] | 30
O=C1CCC(Nc2ccc(C3CCN(CC(=O)N4CCN(c5ccc(-c6cc(Cl)c7cn(C(C(=O)Nc8nccs8)c8ncn9c8CCC9)nc7c6Cl)cc5)CC4)CC3)cc2)C(=O)N1 (racemic) [Compound 61, (2RS)-2-[4,7-Dichloro-6-[4-[4-[2-[4-[4-[[(3RS)-2,6-dioxo-3-piperidyl]amino]phenyl]-1-piperidyl]acetyl]piperazin-1-yl]phenyl]indazol-2-yl]-2-(6,7-dihydro-5H-pyrrolo[1,2-c]imidazol-1-yl)-N-thiazol-2-yl-acetamide] | 112
O=C1CCC(N2Cc3c(OC4CCN(C(=O)CCCN5CCN(c6ccc(-c7ccc8cn(C(C(=O)Nc9nccs9)c9ncn%10c9CCC%10)nc8c7F)cn6)CC5)CC4)cccc3C2=O)C(=O)N1 (racemic) [Compound 62, (2RS)-2-(6,7-Dihydro-5H-pyrrolo[1,2-c]imidazol-1-yl)-2-[7-fluoro-6-[6-[4-[4-oxo-4-[4-[1-oxo-2-[(3RS)-2,6-dioxo-3-piperidyl]isoindolin-4-yl]oxy-1-piperidyl]butyl]piperazin-1-yl]-3-pyridyl]indazol-2-yl]-N-thiazol-2-yl-acetamide] | 19
O=C1CCC(Nc2ccc(C3CCN(CC(=O)N4CCN(c5ccc(-c6ccc7cn(C(C(=O)Nc8nccs8)c8ncn9c8CCC9)nc7c6F)cn5)CC4)CC3)cc2)C(=O)N1 (racemic) [Compound 63, (2RS)-2-(6,7-Dihydro-5H-pyrrolo[1,2-c]imidazol-1-yl)-2-[7-fluoro-6-[6-[4-[2-[4-[4-[[(3RS)-2,6-dioxo-3-piperidyl]amino]phenyl]-1-piperidyl]acetyl]piperazin-1-yl]-3-pyridyl]indazol-2-yl]-N-thiazol-2-yl-acetamide] | 81
O=C1CCC(Nc2ccc(C3CCN(CC(=O)N4CC5(C4)CN(c4ccc(-c6cc(F)c7c(c6)C(=O)N(C(C(=O)Nc6nccs6)c6ncn8c6CCC8)C7)cc4)C5)CC3(F)F)cc2)C(=O)N1 (single isomer, unassigned) [Compound 51, 2-(6,7-dihydro-5H-pyrrolo[1,2-c]imidazol-1-yl)-2-(6-(4-(6-(2-(4-(4-((2,6-dioxopiperidin-3-yl)amino)phenyl)-3,3-difluoropiperidin-1-yl)acetyl)-2,6-diazaspiro[3.3]heptan-2-yl)phenyl)-4-fluoro-1-oxoisoindolin-2-yl)-N-(thiazol-2-yl)acetamide] | 13
O=C1CCC(Nc2ccc(CC(=O)N3CCC(NC(=O)c4ccc(C#Cc5cc(F)c6c(c5)C(=O)N(C(C(=O)Nc5nccs5)c5ncn7c5CCC7)C6)cn4)CC3)cc2)C(=O)N1 (stereo not shown) [Compound 2, 5-[2-[2-[1-(6,7-dihydro-5H-pyrrolo[1,2-c]imidazol-1-yl)-2-oxo-2-(thiazol-2-ylamino)ethyl]-7-fluoro-3-oxo-isoindolin-5-yl]ethynyl]-N-[1-[2-[4-[(2,6-dioxo-3-piperidyl)amino]phenyl]acetyl]-4-piperidyl]pyridine-2-carboxamide] | 7
O=C1CC[C@@H](Nc2ccc(C3CCN(CC(=O)N4CCN(c5ccc(-c6cc(F)c7c(c6)C(=O)N(C(C(=O)Nc6nccs6)c6ncn8c6CCC8)C7)cc5)CC4)CC3)cc2)C(=O)N1 (stereo partly drawn) [Compound 7, 2-(6,7-dihydro-5H-pyrrolo[1,2-c]imidazol-1-yl)-2-[6-[4-[4-[2-[4-[4-[[(3R)-2,6-dioxo-3-piperidyl]amino]phenyl]-1-piperidyl]acetyl]piperazin-1-yl]phenyl]-4-fluoro-1-oxo-isoindolin-2-yl]-N-thiazol-2-yl-acetamide] | 18
O=C1CCC(Nc2ccc(C3CCN(CC(=O)N4CCN(c5ccc(-c6cc(F)c7c(c6)C(=O)N(C(C(=O)Nc6nccs6)c6ncn8c6CCC8)C7)cc5)CC4)CC3)cc2F)C(=O)N1 (stereo not shown) [Compound 13, 2-(6,7-dihydro-5H-pyrrolo[1,2-c]imidazol-1-yl)-2-[6-[4-[4-[2-[4-[4-[(2,6-dioxo-3-piperidyl)amino]-3-fluoro-phenyl]-1-piperidyl]acetyl]piperazin-1-yl]phenyl]-4-fluoro-1-oxo-isoindolin-2-yl]-N-thiazol-2-yl-acetamide] | 52
O=C1CCC(Nc2cccc(C3CCN(CC(=O)N4CCN(c5ccc(-c6cc(F)c7c(c6)C(=O)N(C(C(=O)Nc6nccs6)c6ncn8c6CCC8)C7)cc5)CC4)CC3)c2)C(=O)N1 (stereo not shown) [Compound 16, 2-(6,7-dihydro-5H-pyrrolo[1,2-c]imidazol-1-yl)-2-(6-(4-(4-(2-(4-(3-((2,6-dioxopiperidin-3-yl)amino)phenyl)piperidin-1-yl)acetyl)piperazin-1-yl)phenyl)-4-fluoro-1-oxoisoindolin-2-yl)-N-(thiazol-2-yl)acetamide] | 92
O=C1CCC(Nc2ccc(N3CCC(O)(CC(=O)N4CCN(c5ccc(-c6cc(F)c7c(c6)C(=O)N(C(C(=O)Nc6nccs6)c6ncn8c6CCC8)C7)cc5)CC4)CC3)c(C(F)(F)F)c2)C(=O)N1 (stereo not shown) [Compound 18, 2-(6,7-dihydro-5H-pyrrolo[1,2-c]imidazol-1-yl)-2-(6-(4-(4-(2-(1-(4-((2,6-dioxopiperidin-3-yl)amino)-2-(trifluoromethyl)phenyl)-4-hydroxypiperidin-4-yl)acetyl)piperazin-1-yl)phenyl)-4-fluoro-1-oxoisoindolin-2-yl)-N-(thiazol-2-yl)acetamide] | 46
O=C1CC[C@@H](Nc2ccc(C3CCN(CC(=O)N4CCC(c5ccc(-c6cc(F)c7c(c6)C(=O)N(C(C(=O)Nc6nccs6)c6ncn8c6CCC8)C7)cc5)CC4)CC3)cc2)C(=O)N1 (stereo partly drawn) [Compound 23, 2-(6,7-dihydro-5H-pyrrolo[1,2-c]imidazol-1-yl)-2-(6-(4-(1-(2-(4-(4-(((R)-2,6-dioxopiperidin-3-yl)amino)phenyl)piperidin-1-yl)acetyl)piperidin-4-yl)phenyl)-4-fluoro-1-oxoisoindolin-2-yl)-N-(thiazol-2-yl)acetamide] | 33
O=C1CCC(Nc2ccc(C3CCN(C(=O)CN4CCC(c5ccc(-c6cc(F)c7c(c6)C(=O)N(C(C(=O)Nc6nccs6)c6ncn8c6CCC8)C7)cc5)CC4)CC3)cc2)C(=O)N1 (stereo not shown) [Compound 26, 2-(6,7-dihydro-5H-pyrrolo[1,2-c]imidazol-1-yl)-2-[6-[4-[1-[2-[4-[4-[(2,6-dioxo-3-piperidyl)amino]phenyl]-1-piperidyl]-2-oxo-ethyl]-4-piperidyl]phenyl]-4-fluoro-1-oxo-isoindolin-2-yl]-N-thiazol-2-yl-acetamide] | 26
O=C1CCC(Nc2ccc(C3CCN(CC(=O)N4CCC(Oc5ccc(-c6cc(F)c7c(c6)C(=O)N(C(C(=O)Nc6nccs6)c6ncn8c6CCC8)C7)cc5)CC4)CC3)cc2)C(=O)N1 (stereo not shown) [Compound 31, 2-(6,7-dihydro-5H-pyrrolo[1,2-c]imidazol-1-yl)-2-[6-[4-[[1-[2-[4-[4-[(2,6-dioxo-3-piperidyl)amino]phenyl]-1-piperidyl]acetyl]-4-piperidyl]oxy]phenyl]-4-fluoro-1-oxo-isoindolin-2-yl]-N-thiazol-2-yl-acetamide] | 32
O=C1CCC(Nc2ccc(C3CCN(CC(=O)N4CCC(Oc5ccc(-c6cc(F)c7c(c6)C(=O)N(C(C(=O)Nc6nccs6)c6ncn8c6CCC8)C7)cc5)CC4)CC3)nc2)C(=O)N1 (stereo not shown) [Compound 36, 2-(6,7-dihydro-5H-pyrrolo[1,2-c]imidazol-1-yl)-2-(6-(4-((1-(2-(4-(5-((2,6-dioxopiperidin-3-yl)amino)pyridin-2-yl)piperidin-1-yl)acetyl)piperidin-4-yl)oxy)phenyl)-4-fluoro-1-oxoisoindolin-2-yl)-N-(thiazol-2-yl)acetamide] | 31
